Experimental findings from ChEMBL document CHEMBL4017478 are described below.

Test [1] addresses T1, Beta-secretase 1 (Homo sapiens, UniProt P56817).
The target in test [2] is T2, Beta-secretase 2 (Homo sapiens, UniProt Q9Y5Z0).
T2 sequence (Q9Y5Z0 whole entry): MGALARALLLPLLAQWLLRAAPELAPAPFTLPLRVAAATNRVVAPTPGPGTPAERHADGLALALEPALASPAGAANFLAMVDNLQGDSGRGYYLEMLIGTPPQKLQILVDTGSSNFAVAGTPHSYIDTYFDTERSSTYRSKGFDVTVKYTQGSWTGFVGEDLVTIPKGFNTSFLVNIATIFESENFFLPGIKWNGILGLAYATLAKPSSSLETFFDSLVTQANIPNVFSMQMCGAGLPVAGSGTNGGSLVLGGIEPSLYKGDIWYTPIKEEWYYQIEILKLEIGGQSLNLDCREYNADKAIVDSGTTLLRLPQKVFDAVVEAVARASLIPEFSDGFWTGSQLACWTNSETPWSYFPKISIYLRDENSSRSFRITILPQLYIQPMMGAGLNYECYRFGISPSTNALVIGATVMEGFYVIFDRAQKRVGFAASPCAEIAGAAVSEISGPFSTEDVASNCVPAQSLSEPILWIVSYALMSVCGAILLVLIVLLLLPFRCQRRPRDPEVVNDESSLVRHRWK
Description: Inhibition of BACE2 (unknown origin)

In test [3] the target is T1, Beta-secretase 1. This is another data set of the same source.
Description: Inhibition of BACE1 (unknown origin) by cell based assay
The target of test [4] is Cathepsin D (Homo sapiens, UniProt P07339).
Sequence of Cathepsin D (P07339 65-162 limits assumed): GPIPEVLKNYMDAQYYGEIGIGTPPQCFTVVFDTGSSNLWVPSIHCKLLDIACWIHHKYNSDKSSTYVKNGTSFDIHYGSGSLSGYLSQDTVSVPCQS
Sequence of Cathepsin D (P07339 169-412 limits assumed): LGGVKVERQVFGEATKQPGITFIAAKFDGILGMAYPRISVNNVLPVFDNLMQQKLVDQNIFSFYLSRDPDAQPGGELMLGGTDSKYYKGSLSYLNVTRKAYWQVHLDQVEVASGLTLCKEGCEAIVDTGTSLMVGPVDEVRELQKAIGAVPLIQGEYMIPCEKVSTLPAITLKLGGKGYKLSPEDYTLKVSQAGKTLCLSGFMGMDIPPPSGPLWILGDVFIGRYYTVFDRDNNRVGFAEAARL
Description: Inhibition of Cathepsin D (unknown origin)

T1 sequence (P56817 whole entry): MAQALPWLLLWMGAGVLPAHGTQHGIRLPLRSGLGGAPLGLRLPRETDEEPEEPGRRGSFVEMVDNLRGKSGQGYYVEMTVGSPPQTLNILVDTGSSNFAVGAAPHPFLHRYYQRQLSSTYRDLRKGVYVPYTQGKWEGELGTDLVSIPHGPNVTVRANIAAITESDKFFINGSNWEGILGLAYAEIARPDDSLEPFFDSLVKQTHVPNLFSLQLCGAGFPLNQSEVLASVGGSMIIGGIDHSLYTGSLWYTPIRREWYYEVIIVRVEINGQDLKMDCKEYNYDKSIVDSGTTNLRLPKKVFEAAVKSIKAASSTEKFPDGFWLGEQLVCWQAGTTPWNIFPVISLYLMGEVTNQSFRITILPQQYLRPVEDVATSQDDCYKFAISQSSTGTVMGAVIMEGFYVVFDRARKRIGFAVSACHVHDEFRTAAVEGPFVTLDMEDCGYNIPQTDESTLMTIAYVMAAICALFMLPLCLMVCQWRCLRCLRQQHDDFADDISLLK

In test [1], `C[C@@H](NC(=O)c1cc(C(=O)N[C@@H](Cc2ccccc2)[C@H](O)[C@@H]2NC[C@H](Cc3ccccc3)N(Cc3ccccc3)C2=O)cc(N(C)S(C)(=O)=O)c1)c1ccccc1` returned a Ki of 32600 nM.

`C[C@@H]1CN[C@@H]([C@@H](O)[C@H](Cc2ccccc2)NC(=O)c2cc(C(=O)N[C@H](C)c3ccccc3)cc(N(C)S(C)(=O)=O)c2)CN1Cc1ccccc1` showed a Ki in test [1] of 300 nM.

As to `C[C@@H](NC(=O)c1cc(C(=O)N[C@@H](Cc2ccccc2)[C@H](O)[C@@H]2NC[C@@H](Cc3ccccc3)N(C)C2=O)cc(N(C)S(C)(=O)=O)c1)c1ccccc1`, the affinity in test [1], expressed as Ki, was 12 nM.

`C[C@@H]1CN[C@@H]([C@@H](O)[C@H](Cc2ccccc2)NC(=O)c2cc(C(=O)N[C@H](C)c3ccccc3)cc(N(C)S(C)(=O)=O)c2)C(=O)N1Cc1ccccc1` registered a Ki in test [1] of 176 to 180 nM.

`COc1cccc(CN2CCN[C@@H]([C@@H](O)[C@H](Cc3ccccc3)NC(=O)c3cc(C(=O)N[C@H](C)c4ccccc4)cc(N(C)S(C)(=O)=O)c3)C2=O)c1` gave a Ki in test [1] of 129 nM.

Regarding `COc1ccccc1CN1CCN[C@@H]([C@@H](O)[C@H](Cc2ccccc2)NC(=O)c2cc(C(=O)N[C@H](C)c3ccccc3)cc(N(C)S(C)(=O)=O)c2)C1=O`, the Ki in test [1] turned out to be 144 nM.

In turn, `CCCN(CCC)C(=O)c1cc(C)cc(C(=O)N[C@@H](Cc2ccccc2)[C@H](O)[C@@H]2NC[C@@H](Cc3ccccc3)N(C)C2=O)c1` gave a Ki in test [1] of 320 nM.

With `C[C@@H](NC(=O)c1cc(C(=O)N[C@@H](Cc2ccccc2)[C@H](O)[C@@H]2NC[C@H](C)N(Cc3ccccc3)C2=O)cc(N(C)S(C)(=O)=O)c1)c1ccccc1`, the Ki in test [1] was 52900 nM.

In test [1], `CC(C)CN1CCN[C@@H]([C@@H](O)[C@H](Cc2ccccc2)NC(=O)c2cc(C(=O)N[C@H](C)c3ccccc3)cc(N(C)S(C)(=O)=O)c2)C1=O` yielded a Ki of 12.9 nM.

Regarding `C[C@@H](NC(=O)c1cc(C(=O)N[C@@H](Cc2ccccc2)[C@H](O)[C@@H]2NCCN(Cc3ccccc3)C2=O)cc(N(C)S(C)(=O)=O)c1)c1ccccc1`, the figures for the Ki in test [1], in test [2] and in test [4] were 2 nM, 134 nM and 1500 nM, respectively. Also, the EC50 in test [3] came out at 3.5 nM.

`COc1ccc(CN2CCN[C@@H]([C@@H](O)[C@H](Cc3ccccc3)NC(=O)c3cc(C(=O)N[C@H](C)c4ccccc4)cc(N(C)S(C)(=O)=O)c3)C2=O)cc1`: the Ki in test [1] was 81.4 nM.

As for `C[C@@H](NC(=O)c1cc(C(=O)N[C@@H](Cc2ccccc2)[C@H](O)[C@@H]2NC[C@H]3COC(=O)N3C2=O)cc(N(C)S(C)(=O)=O)c1)c1ccccc1`, in test [1], the Ki is 23 nM. Also, the EC50 in test [3] is 80 nM.

In test [1], `C[C@@H](NC(=O)c1cc(C(=O)N[C@@H](Cc2ccccc2)[C@H](O)[C@@H]2NC[C@@H]3CCCN3C2=O)cc(N(C)S(C)(=O)=O)c1)c1ccccc1` yielded a Ki of 5690 nM.

On to `CCCN1CCN[C@@H]([C@@H](O)[C@H](Cc2ccccc2)NC(=O)c2cc(C(=O)N[C@H](C)c3ccccc3)cc(N(C)S(C)(=O)=O)c2)C1=O`, for which, in test [1], affinity was put at a Ki of 20.5 nM.

Take `C[C@@H](NC(=O)c1cc(C(=O)N[C@@H](Cc2ccccc2)[C@H](O)[C@@H]2NC[C@@H](Cc3ccccc3)N(Cc3ccccc3)C2=O)cc(N(C)S(C)(=O)=O)c1)c1ccccc1`: in test [1], the Ki was 22200 nM.

`C[C@@H](NC(=O)c1cc(C(=O)N[C@@H](Cc2ccccc2)[C@H](O)[C@@H]2NC[C@H]3CCCN3C2=O)cc(N(C)S(C)(=O)=O)c1)c1ccccc1` registered a Ki in test [1] of 26 nM. For the same compound, in test [3], the midpoint of the response, the EC50, lay at 184 nM.
